From US20020132019A1, “Sterol fractions of Nigella sativa L. seeds” (priority 2000, published 2002)

Key:
Type in all cases: in vivo
[1] = test system: guinea pigs exposed to histamine aerosol (0.25%); assay: Prophylactic anti-asthmatic effect: pre-convulsive time on histamine aerosol (0.25%); settings: 50 :g/kg, treated for 21 days, histamine 0.25% aerosol
Experimental: This example explains an in vivo study to evaluate the prophylactic (protective) anti-asthmatic effect of the Nigella sativa L. sterol fraction. The prophylactic anti-asthmatic effect was evaluated in vivo by measurement of the pre-convulsive time in guinea pigs exposed to histamine aerosol (0.25%).
Guinea pigs were divided into three groups with 8 animals per group. The first group received saline injections to serve as negative control. The second group received ketotifen, which is the standard treatment to serve as positive control. The third group received 200 mg/kg each of the Nigella sativa L. sterol fraction of the present invention.
Animals in all groups were treated for 21 days after which time they were exposed to histamine (0.25 %) aerosol and the preconvulsive time was recorded.

[2] = test system: ova albumin sensitized guinea pigs; assay: Tachypnea protective effect in ova albumin sensitized animals; settings: 50 :g/kg, treated for 21 days, ova albumin inhalation
Experimental: This experiment was an in vivo study to evaluate the tachypnea (protective) effect of the Nigella sativa L. sterol fraction of the present invention. The second protocol involved sensitized animals. Animals were sensitized by injecting ova albumin in two doses 100 mg. each (S.C. and I.P., simultaneously). Animals were resensitized 15 days later. Guinea pigs were divided into three groups with 8 animals per group. The first group received a saline injection to serve as negative control. The second group received ketotifen which is the standard treatment to serve as positive control. The third group received 200 mg/kg each of the Nigella sativa L. sterol fraction of the present invention. Animals in all groups were treated for 21 days following which they were exposed to ova albumin inhalation and time to onset of tachypnea was recorded as shown in the table below.

[3] = test system: histamine-induced bronchospasm in guinea pigs; assay: Prophylactic anti-allergic effect: protection against histamine aerosol (1%) induced bronchospasm; settings: 239 mg/kg i.p.
Experimental: The prophylactic anti-allergic effects of the Nigella sativa L. sterol fraction were evaluated in guinea pigs (300-400 grams). Animals were divided into 5 groups (10 animals each) and treated i.p. As follows:
First: Animals treated by saline.
Second: Animals treated by diphenhydramine (239 mg/kg/day).
Third: Animals treated by the Nigella sativa L. sterol fraction (50 mg/kg).
Animals treated by the Nigella sativa L. sterol fraction (100 mg/kg).
Fifth: Animals treated by the Nigella sativa L. sterol fraction (150mg/kg).
Animals were exposed 30 minutes after their i.p. Injection of diphenhydramine and the Nigella sativa L. sterol fraction (50,100 and 150 mg/kg) to histamine aerosol (1% for 3 minutes to induce bronchospasm or tachypnea) (Armitage et al, Br. J. Pharmacol., 16:59-76 (1961)). The percent protection against bronchospasm and loss of rightening after 30, 60 and 90 minutes was calculated (Dawson and Sweatman, Br. J. Pharmacol, 71:387-398 (1980)).

| Compound | % of Prophylaxis (Protection) [1] | % of Prophylaxis [2] | % protection 30 minutes ([3]; 30 minutes) | % protection 60 minutes ([3]; 60 minutes) | % protection 90 minutes ([3]; 90 minutes) |
| --- | --- | --- | --- | --- | --- |
| CN1CCC(=C2c3ccccc3CC(=O)c3sccc32)CC1 [ketotifen] | 82.85% | 44.4% |  |  |  |
| CN(C)CCOC(c1ccccc1)c1ccccc1 [Diphenhydramine, diphenhydramine] |  |  | 100% | 100% | 90% |
